molecular target: SARS-CoV-2 main protease (M^pro) (Severe acute respiratory syndrome coronavirus 2, UniProt P0DTD1)

Substance	Fold change = (kcat/KM) nsp8/9 analog /(kcat/KM) nsp8/9	Km	kcat	kcat/KM (catalytic efficiency)	fold difference in kcat/KM, nsp4/5 versus nsp8/9
RVVKLQ/ANELMP [nsp8/9 N1′A]	2.9	22 ± 3 µM	0.022 ± 0.001 S^−1	1.0 ± 0.1 × 10^3 M^−1 s^−1	–
RVVKLQ/NAELMP [nsp8/9 N2′A]	2.1	46 ± 5 µM	0.034 ± 0.002 S^−1	7.5 ±0.8 × 10^2 M^−1 s^−1	–
RVVKLQ/NDELMP [nsp8/9 N2′D]	0.4	19 ± 1 µM	0.0029 ± 0.0001 S^−1	1.6 ± 1.2 × 10^2 M^−1 s^−1	–
RVVKLQ/NNELMP [nsp8/9]	1.0	36 ± 6 µM	0.013 ± 0.001 S^−1	3.6 ± 0.7 × 10^2 M^−1 s^−1	–
TSAVLQ/SGFRKM [nsp4/5]	–	41 ± 9 µM	0.52 ± 0.07 S^−1	1.3 ± 0.3 × 10^4 M^−1 s^−1	36 fold
